Laboratory results reported in patent US7498303B2, “GNRH analogues for treatment of urinary incontinence” (priority 2000, dated 2009).
“And” between values parts separate entries of the source, which are not always exact repeats. Equal values may be shown once. Where a name gives a salt, the structure may show the parent alone.

How the values were obtained:
[1] = system: excessive growth of the undercoat (baby coat) due to spaying; assay: Excessive growth of the undercoat due to spaying in cocker spaniel bitches; assay type: in vivo, dog; details: 5 mg slow release s.c. implant
Description: Two cocker spaniel bitches belonging to the same owner were showing excessive growth of the undercoat due to spaying. […] Both dogs were first clinically examined and thereafter a GnRH analogue (Deslorelin) in a dosage of 5 mg, in slow release form, was subcutaneously implanted between the shoulder blades.

stress incontinence = assay: Menopausal person with stress incontinence, 24 hour pad test; assay type: in vivo, human; details: single dose of 3.75 mg, one person
Description: A second menopausal person, suffering from stress incontinence for at least 6 years, was treated with a single dose of 3.75 mg of leuprolide acetate. 24 hour pad tests conducted prior to treatment with the drug indicated they lost between 10 and 130 ml of urine on a daily basis due to their incontinence.

[2] = system: urinary incontinence after spaying; assay: GnRH analogue slow release implant in bitches with urinary incontinence after spaying; assay type: in vivo, dog; details: slow release s.c. implant
Description: Additionally, for a limited period the dogs were treated with phenylpropanolamine in a dosage of 1.5 mg/kg BW tid orally.
After discontinuation of the shortacting phenylpropanolamine 8 bitches remained continent. Their continence was therefore achieved solely by the treatment with the composition as described in the present invention. Seven out of fifteen dogs seemed to be much happier and in none of the dogs did the general condition deteriorate. […] The respective results are shown in more detail in table 1.

urinary incontinence = assay: Double-blind, placebo-control study in client owned dogs suffering from urinary incontinence; assay type: in vivo, dog
Description: In a second ongoing study, 16 client owned dogs suffering from urinary incontinence were enrolled in a double-blind, placebo-control study. In the initial phase of the study, dogs were randomly assigned to treatment with a long-acting GnRH analogue (leuprolide acetate) or placebo (dog owners and the investigators were blinded to treatment) along with a short course of therapy with phenylpropanolamine. 5 weeks after treatment with drug or placebo, dogs were evaluated and, if not fully continent, treated with a long-acting GnRH analogue (leuprolide acetate) in an open label phase of the study. To date only 1 of 10 dogs treated with placebo became continent vs. […] treated with drug during the blinded portion of the study. Overall, the results generated thus far indicate […] dogs treated with the long-acting GnRH analogue became continent and […] improved after discontinuation of the short acting phenylpropanolamine. Only 1 dog of 15 treated with the GnRH analogue was considered not to have improved following treatment with the drug.

[3] = system: urinary incontinence of the bitch; details: 1.5 mg/kg BW p.o., given every 8 hours; cited from earlier work
[4] = system: urge incontinence and hotflushes; assay: Perimenopausal person with urge incontinence and hot flushes; assay type: in vivo, human; details: 3.75 mg; one perimenopausal person
[5] = 11,25 mg, without PPA, one dog per line, listed as Leuprorelin acetate
[6] = 6,3 mg, without PPA, one dog per line
[7] = 6 mg, without PPA, one dog per line
[8] = 12 mg, with PPA, one dog per line
[9] = 12 mg, without PPA, one dog per line

## CCNC(=O)[C@@H]1CCCN1C(=O)[C@H](CCCN=C(N)N)NC(=O)[C@H](CC(C)C)NC(=O)[C@@H](Cc1c[nH]c2ccccc12)NC(=O)[C@H](Cc1ccc(O)cc1)NC(=O)[C@H](CO)NC(=O)[C@H](Cc1c[nH]c2ccccc12)NC(=O)[C@H](Cc1cnc[nH]1)NC(=O)[C@@H]1CCC(=O)N1 [Deslorelin]
[1]; 5 weeks after the injection, both of two dogs
  Coat quality: obvious amelioration of the coat quality
[1]; 21 weeks after injection, two dogs
  Signs of baby coat: no signes of “baby coat” were apparent anymore

## CCNC(=O)[C@@H]1CCCN1C(=O)[C@H](CCCNC(=N)N)NC(=O)[C@H](CC(C)C)NC(=O)[C@@H](CC(C)C)NC(=O)[C@H](Cc1ccc(O)cc1)NC(=O)[C@H](CO)NC(=O)[C@H](Cc1c[nH]c2ccccc12)NC(=O)[C@H](Cc1c[nH]cn1)NC(=O)[C@@H]1CCC(=O)N1 [Leuprorelinacetate, leuprolide acetate]
Stress incontinence; 2 weeks after treatment, before treatment 10 to 130 ml daily
  Daily urine loss, pad test: 1 mL
Stress incontinence
  Patient's judgement of the effects of the therapy: very satisfied
[2]; 11,25 mg, with PPA, one dog
  Duration of effect after treatment: >64 days
  Effect on incontinence: 100%
[2]; 11,25 mg, without PPA, one dog per line
  Duration of effect after treatment: 0 days
[2]; [5]
  Duration of effect after treatment: >14 days
  Effect on incontinence: 100%
Urinary incontinence; long-acting, with short course of phenylpropanolamine, evaluated 5 weeks after treatment, placebo 1 of 10
  Dogs that became continent during the blinded portion of the study: 3 to 8 dogs
Urinary incontinence; of 15 treated
  Dogs considered not to have improved following treatment: 1 dog
Urinary incontinence; of 15 treated, blinded and open label phases, ongoing study
  Dogs that became continent after discontinuation of phenylpropanolamine (overall): 6 dogs
Urinary incontinence; of 15 treated, ongoing study
  Remaining dogs that improved after discontinuation of phenylpropanolamine: 9 dogs

## CN[C@@H](C)[C@H](O)c1ccccc1 [ephedrinhydrochloride]
[3]
  Continence achieved: 74%

## CC(N)C(O)c1ccccc1 (centres unmarked) [phenylpropanolamine]
[3]
  Continence achieved: 74%

## Buserelin acetate [Buserelinacetate]
[2]; [6]
  Duration of effect after treatment: 44 days and 83 days
  Effect on incontinence: 100%

## Deslorelin acetate [Deslorelinacetate]
[2]; 6 mg, one dog per line
  Side effects: More playfull
[2]; 6 mg, with PPA, one dog
  Duration of effect after treatment: >336 days
[2]; 6 mg, with PPA, one dog per line
  Effect on incontinence: 100%
[2]; [7]
  Duration of effect after treatment: >47 days and >344 days and >340 days
  Effect on incontinence: 100%
[2]; [8]
  Duration of effect after treatment: 135 days and >318 days and >225 days
  Effect on incontinence: 80% and 100% (2×)
[2]; [9]
  Duration of effect after treatment: 64 days and >64 days and >209 days
  Effect on incontinence: 100%

## Triptorelin acetate [Triptorelinacetate]
[2]; 3,75 mg, footnote: dose too low, one dog
  Duration of effect after treatment: 0
[4]
  Period of improvement of both symptoms: about 4 weeks
  Urge incontinence and hotflushes, patient report: improved considerably
